From patent EP0313981A2, “3-(4-Chlorphenyl)-2,2-dimethyl-3-hydroxy-4-(1,2,4-triazol-1-yl)-butyronitril” (BAYER AG, priority 1987, dated 1989)
Converted amounts (≈) assume the structure as drawn.

Assays:
[1] = test system: Candida albi-cans und sp.; assay: Antifungal in vitro activity (MIC), Kimmig medium; assay type: cell-based, Candida albicans; settings: inoculum 5 x 10³ Keime/ml, 28 °C, 24 to 96 h, read-out: MHK-Werte (minimale Hemmkonzentration)
Description: (§1) Die in-vitro-Prüfungen wurden mit Keiminokula von durchschnittlich 5 x 10³ Keimen/ml Substrat durchgeführt. Als Nährmedium diente Kimmig-Medium.
(§2) Die Bebrütungstemperatur betrug 28 °C, die Bebrütungsdauer lag bei 24 bis 96 Stunden bei Hefen und 96 Stunden bei Dermatophyten und Schimmelpilzen.

[2] = test system: Candida-Zellen; assay: Antifungal in vivo activity (oral) in mouse candidiasis; set-up: species or system Mäuse vom Typ SPF-CF₁; settings: 2 x 5,0 mg/kg per day for 5 days; for Wirkung: mice infected i.v. with 1 x 10⁶ Candida cells, survivors on day 6 p.i.; for Wirkung (in words): mouse candidiasis
Description: Mäuse vom Typ SPF-CF₁ werden intravenös mit 1 x 10⁶ logarithmisch wachsenden Candida-Zellen, die in physiologischer Kochsalzlösung suspendiert wurden, infiziert, Gleichzeitig mit der Infektion werden die Tiere mit jeweils 5,0 mg/kg Körpergewicht der Präparate oral behandelt.
Die Behandlung wird 5 Tage fortgesetzt; die Tagesdosis beträgt jeweils 2 mal 5,0 mg/kg Körpergewicht.
Unbehandelte Tiere sterben 3 bis 6 Tage post infektionem. Die Überlebensrate am 6.Tag post infektionem beträgt bei unbehandelten Kontrolltieren etwa 5 %.

[3] = test system: Tricho-phyton mentagr.; assay: Antifungal in vitro activity (MIC), Kimmig medium; assay type: cell-based; settings: Trichophyton mentagrophytes, inoculum 5 x 10³ Keime/ml, 28 °C, 96 h, read-out: MHK-Werte (minimale Hemmkonzentration)
Description: as §1, §2

[4] = test system: Asper-gillus fumi-gatus; assay: Antifungal in vitro activity (MIC), Kimmig medium; assay type: cell-based; settings: Aspergillus fumigatus, inoculum 5 x 10³ Keime/ml, 28 °C, 96 h, read-out: MHK-Werte (minimale Hemmkonzentration)
Description: as §1, §2

[5] = test system: Micro-sporum canis; assay: Antifungal in vitro activity (MIC), Kimmig medium; assay type: cell-based; settings: Microsporum canis, inoculum 5 x 10³ Keime/ml, 28 °C, 96 h, read-out: MHK-Werte (minimale Hemmkonzentration)
Description: as §1, §2

[6] = test system: Trichophyton mentagrophytes; assay: Antimicrobial in vivo activity (oral) in experimental guinea pig trichophytosis; set-up: species or system Meerschweinchen der Rasse Pirbright-white; key to Wirkung: +++++: = sehr gute Wirkung = keine Infektionszeichen am 12. bis 15. Tag p.i.; ++++: = gute Wirkung = geringe Rötung, vereinzelt Schuppen; +++: = Wirkung = Rötung, Schuppen ohne Haarausfall; ++: = schwache Wirkung = Rötung, Schuppen, Haaraus-fall; +: = Spurwirkung = flächiger Haarausfall, entzündliche Hautreaktion; k.w.: = keine Wirkung = kein Unterschied zur unbehandelten Kontrolle; settings: 1 x 2,5 mg/kg per day for 10 days; for Wirkung (in words): guinea pig trichophytosis; for Wirkung: guinea pigs infected on the back with Trichophyton mentagrophytes, signs of infection day 12 to 15 p.i.
Description: Weiße Meerschweinchen der Rasse Pirbright-white werden auf dem geschorenen, nicht skarifizierten Rücken mit einer Mikro- und Makrokonidien-Suspension von Trichophyton mentagrophytes infiziert.
Die infizierten Tiere werden beginnend mit dem Tag der Infektion 1 x täglich mit 2,5 mg/kg Körpergewicht der Präparate oral behandelt. Die Behandlung wird 10 Tage fortgesetzt; die Tagesdosis beträgt jeweils 1 mal 2,5 mg/kg Körpergewicht.
Bei unbehandelten Tieren entwickelt sich innerhalb von 12 Tagen p.i. das typische Bild einer Dermatophytose mit Rötung, Schuppung und Haarausfall bis zum totalen Integument-Defekt an der Infektionsstelle.

[7] = test system: Toru-lopsis gla-brata; assay: Antifungal in vitro activity (MIC), Kimmig medium; assay type: cell-based, Torulopsis glabrata; settings: Nakaseomyces glabratus, inoculum 5 x 10³ Keime/ml, 28 °C, 24 to 96 h, read-out: MHK-Werte (minimale Hemmkonzentration)
Description: as §1, §2

In the case of CC(C#N)C(O)(Cn1cncn1)c1ccc(Cl)cc1 (stereo not drawn) [(A), 3-(4-Chlorphenyl)-3-hydroxy-2-methyl-4-(1,2,4-triazol-1-yl)-butyronitril], the MIC [1] is reported as 16 to 32 µg/mL (≈ 57.8 to 116 µM), the Wirkung [2] is reported as “k.w” and the “Wirkung (in words)” value [2] is reported as “keine Wirkung”. The MIC [3] was 32 µg/mL (≈ 116 µM), the MIC [4] was 64 µg/mL (≈ 231 µM) and the MIC [5] was 32 µg/mL (≈ 116 µM). For the same molecule, the “Wirkung (in words)” value [6] was “keine Wirkung”, the Wirkung [6] was “k.w” and the MIC [7] was 64 µg/mL (≈ 231 µM).

In the case of CC(C)(C#N)C(O)(Cn1cncn1)c1ccc(Cl)cc1 (stereo not drawn) [(I), 3-(4-Chlorphenyl)-2,2-dimethyl-3-hydroxy-4-(1,2,4-triazol-1-yl)-butyronitril], the MIC [1] is reported as 4 to 8 µg/mL (≈ 13.8 to 27.5 µM), the Wirkung [2] is reported as “++++ (= gute Wirkung = 80 % Überlebende am 6.Tag.p.i.)” and the “Wirkung (in words)” value [2] is reported as “gute Wirkung”. For the same molecule, the MIC [3] was 4 to 8 µg/mL (≈ 13.8 to 27.5 µM), the MIC [4] was 64 µg/mL (≈ 220 µM) and the MIC [5] was 4 to 8 µg/mL (≈ 13.8 to 27.5 µM). The “Wirkung (in words)” value [6] was “gute Wirkung”, the Wirkung [6] was “++++” and the MIC [7] was 32 to 64 µg/mL (≈ 110 to 220 µM).
